MIC data for 12 compounds are collected here from ChEMBL document CHEMBL3044771, “Synthesis, characterization, and in vitro anti-Mycobacterium tuberculosis activity of terpene Schiff bases” (2013).

As usually defined, the MIC is the least concentration at which growth counts as inhibited.

Holding throughout (assay type): functional
The subject of experiment [1] is Mycobacterium intracellulare. The experiment in a line: Antitubercular activity against Mycobacterium intracellulare ATCC 35743 assessed as growth inhibition after 48 hr by NCCLS agar dilution method. The note with it: ATCC 35743, 48 h. On the technique in general: Agar dilution tests growth on a series of plates holding different concentrations.
Experiment [2] has as its system Mycolicibacterium smegmatis. Briefly: Antitubercular activity against Mycobacterium smegmatis ATCC 35797 assessed as growth inhibition after 48 hr by NCCLS agar dilution method. The note with it: ATCC 35797, 48 h.
The subject of another experiment is Mycobacteroides chelonae. The experiment in a line: Antitubercular activity against Mycobacterium chelonae ATCC 35751 assessed as growth inhibition after 48 hr by NCCLS agar dilution method. The note with it: ATCC 35751, 48 h.
A further experiment concerns Mycobacterium xenopi. Briefly: Antitubercular activity against Mycobacterium xenopi ATCC 14470 assessed as growth inhibition after 48 hr by NCCLS agar dilution method. The note with it: ATCC 14470, 48 h.

Converted amounts (≈) assume the structure as drawn. Bounds are passed on as bounds.

`CC12CCC(C/C1=N/NC(=O)c1ccncc1)C2(C)C` (stereo not drawn): the MIC (in experiment [1]; in experiment [2]; with Mycobacteroides chelonae; with Mycobacterium xenopi) was 50 µg/mL (≈ 184 µM) in each case.

As for `C=C(C)C1CC=C(C)/C(=N/NC(=O)c2ccncc2)C1` (stereo not drawn), the MIC (in experiment [1]; in experiment [2]; in the experiment on Mycobacteroides chelonae; in the experiment with Mycobacterium xenopi) was 12 µg/mL (≈ 44.6 µM) throughout.

In the case of `CCn1cc(C(=O)N/N=C\C=C(/C)CCC=C(C)C)c(=O)c2ccc(C)nc21`, the MIC (in experiment [1]; in experiment [2]; in the experiment on Mycobacteroides chelonae; in the experiment with Mycobacterium xenopi) was above 100 µg/mL in each case.

Consider `CCn1cc(C(=O)N/N=C2\CC3CCC2(C)C3(C)C)c(=O)c2ccc(C)nc21` (stereo not drawn), for which the MIC (in experiment [1]; in experiment [2]; in the experiment with Mycobacteroides chelonae; in the experiment with Mycobacterium xenopi) was 50 µg/mL (≈ 131 µM) in each case.

For the compound `C=C(C)C1CC=C(C)/C(=N\NC(=O)c2cn(CC)c3nc(C)ccc3c2=O)C1` (stereo not drawn), the MIC (in experiment [1]; in experiment [2]; with Mycobacteroides chelonae; in the experiment on Mycobacterium xenopi) was above 100 µg/mL each time.

In the case of `CC(C)=CCC/C(C)=C\C=N/NC(=O)c1ccccc1Nc1cccc(C)c1C`, the MIC (in experiment [1]; in experiment [2]; in the experiment with Mycobacteroides chelonae; with Mycobacterium xenopi) was above 100 µg/mL throughout.

For the compound `Cc1cccc(Nc2ccccc2C(=O)N/N=C2\CC3CCC2(C)C3(C)C)c1C` (stereo not drawn), the MIC (in experiment [1]; in experiment [2]; with Mycobacteroides chelonae; in the experiment on Mycobacterium xenopi) was above 100 µg/mL in each case.

As to `C=C(C)C1CC=C(C)/C(=N/NC(=O)c2ccccc2Nc2cccc(C)c2C)C1` (stereo not drawn), the MIC (in experiment [1]; in experiment [2]; with Mycobacteroides chelonae; with Mycobacterium xenopi) was above 100 µg/mL each time.

Consider `CC12CCC(C/C1=N\NC(=O)c1ccccc1Nc1cccc(C(F)(F)F)c1)C2(C)C` (stereo not drawn), for which the MIC (in experiment [1]; in experiment [2]; in the experiment on Mycobacteroides chelonae; with Mycobacterium xenopi) was above 100 µg/mL each time.

`C=C(C)C1CC=C(C)/C(=N/NC(=O)c2ccccc2Nc2cccc(C(F)(F)F)c2)C1` (stereo not drawn): the MIC (in experiment [1]; in experiment [2]; in the experiment on Mycobacteroides chelonae; in the experiment with Mycobacterium xenopi) was above 100 µg/mL each time.

Regarding `CC(C)=CCC/C(C)=C/C=N/NC(=O)c1ccncc1`, the MIC (in experiment [1]; in experiment [2]; in the experiment on Mycobacteroides chelonae; in the experiment on Mycobacterium xenopi) was above 100 µg/mL in each case.

`NNC(=O)c1ccncc1` [ISONIAZID]: the MIC (in experiment [1]; in experiment [2]; with Mycobacteroides chelonae; in the experiment on Mycobacterium xenopi) was 12.5 µg/mL (≈ 91.1 µM) throughout.
